Data on eight compounds can be found in PubChem BioAssay (NCI).

Some test systems named below: A498 renal; COLO 205 colon; HCT-15 colon; HOP-62 NSCLC; IGROV1 ovarian; NCI-H226 lung; NCI-H522 lung; SNB-19 CNS; SW-620 colon; T-47D breast.
Common to all, as to experiment: DTP human tumour cell line panel, 48 h

Where “and” joins values, the source holds several entries; their conditions need not be identical. Equal values may be shown once.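 All cell lines were grown in 96-well plates and treated with compound for 48 hours. Here, GI50 denotes the concentration required for 50% inhibition of growth. Definition used: TGI = concentration required for complete inhibition of growth.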 Bounds are passed on as bounds.

For `N=c1ccn2c(n1)OC1C(OP(=O)(O)O)C(CO)OC12` (stereo not given), the concentration for total growth inhibition (TGI) in the experiment on A498 renal, with COLO 205 colon, in the experiment on HCT-15 colon, in the experiment with HOP-62 NSCLC, in the experiment with IGROV1 ovarian and in the experiment with NCI-H226 lung was greater than 100 µM throughout. Besides, the total growth inhibition concentration (TGI) in the experiment with NCI-H522 lung, in the experiment with SNB-19 CNS, in the experiment with SW-620 colon and in the experiment with T-47D breast was greater than 100 µM in each case.

Regarding `NC1=NC(=O)N2CC12` (stereo not given), the GI50 (as a rule, the concentration that inhibits growth by half) with A498 renal is 228 µM; in the experiment on COLO 205 colon it was 278 µM; in the experiment with HCT-15 colon, 301 µM; in the experiment on HOP-62 NSCLC, 570 µM; with IGROV1 ovarian, 86.8 µM and 261 µM; with NCI-H226 lung, 184 µM. Further, the GI50 is 116 µM in the experiment with NCI-H522 lung; 516 µM with SNB-19 CNS; 48.2 µM and 58.4 µM with SW-620 colon; 26.7 µM and 54.5 µM in the experiment with T-47D breast. Besides, the total growth inhibition concentration (TGI) – broadly, the concentration giving total growth inhibition – with A498 renal is > 100 µM and 875 µM; with COLO 205 colon, > 100 µM and 929 µM; in the experiment on HCT-15 colon, > 100 µM and 1140 µM; in the experiment with HOP-62 NSCLC it was > 100 µM and 1250 µM; with IGROV1 ovarian, > 100 µM and 1100 µM; in the experiment with NCI-H226 lung, > 100 µM and 896 µM. In addition, the TGI was > 100 µM and 367 µM in the experiment on NCI-H522 lung; > 100 µM and 1120 µM in the experiment on SNB-19 CNS; > 100 µM and 143 µM in the experiment on SW-620 colon; 316 µM in the experiment on T-47D breast.

Consider `C/C(=C\c1ccn(-c2ccc(N)c(C(F)(F)F)c2)n1)[C@@H]1C[C@@H]2O[C@]2(C)CCC[C@H](C)[C@H](O)[C@@H](C)C(=O)C(C)(C)[C@@H](O)CC(=O)O1`, for which the GI50 in the experiment on A498 renal is 0.0175 µM; with COLO 205 colon it was 0.00855 µM; with HCT-15 colon, 0.0109 µM; in the experiment with HOP-62 NSCLC, 0.0212 µM; with IGROV1 ovarian, 0.0773 µM; in the experiment with NCI-H226 lung, 1.99 µM. The GI50 with NCI-H522 lung is 0.0085 µM; in the experiment on SNB-19 CNS, 0.0287 µM; with SW-620 colon, 0.00743 µM; with T-47D breast, 0.0164 µM. Further, the TGI with A498 renal was 1.31 µM; in the experiment with COLO 205 colon, 0.111 µM; in the experiment with HCT-15 colon, greater than 27.8 µM; in the experiment on HOP-62 NSCLC, greater than 20.3 µM; in the experiment with IGROV1 ovarian, greater than 32.5 µM; in the experiment with NCI-H226 lung it was greater than 32.5 µM. Besides, the total growth inhibition concentration (TGI) in the experiment on NCI-H522 lung is 0.0576 µM; in the experiment with SNB-19 CNS it was greater than 32.5 µM; with SW-620 colon, greater than 32.5 µM; in the experiment on T-47D breast, 28.3 µM.

Take `CS(=O)(=O)CCNCc1ccc(-c2ccc3ncnc(Nc4ccc(OCc5ccccc5)c(C(F)(F)F)c4)c3c2)o1`: the GI50 in the experiment with A498 renal is 6.51 µM; with COLO 205 colon, 4.97 µM; in the experiment on HCT-15 colon, 4.65 µM; in the experiment with HOP-62 NSCLC it was 6.16 µM; in the experiment with IGROV1 ovarian it was 6.36 µM; in the experiment with NCI-H226 lung it was 7.75 µM. In addition, the GI50 in the experiment with NCI-H522 lung is 5.02 µM; in the experiment with SNB-19 CNS, 4.79 µM; with SW-620 colon it was 4.62 µM; with T-47D breast, 6.76 µM. The TGI with A498 renal is 25 µM; with COLO 205 colon it was 9.11 µM; in the experiment on HCT-15 colon, 10.2 µM; in the experiment with HOP-62 NSCLC it was 15.8 µM; with IGROV1 ovarian, greater than 22.2 µM; with NCI-H226 lung, greater than 25 µM. Further, the TGI was found to be 9.94 µM in the experiment on NCI-H522 lung, 9.37 µM in the experiment on SNB-19 CNS, 8.66 µM with SW-620 colon and 18.9 µM in the experiment with T-47D breast.

For `Nc1ccccc1NC(=O)c1ccc(CSc2nc(N3CCOCC3)c3cccn3n2)cc1`, the GI50 with A498 renal was 1.09 µM; in the experiment with COLO 205 colon, 1.07 µM; in the experiment with HCT-15 colon it was 0.588 µM; with HOP-62 NSCLC, 1.49 µM; with IGROV1 ovarian, 1.18 µM; in the experiment with NCI-H226 lung, 1.26 µM. The GI50 was 0.339 µM with NCI-H522 lung, 2.67 µM in the experiment with SNB-19 CNS, 0.44 µM in the experiment with SW-620 colon and 0.498 µM in the experiment with T-47D breast. For the same compound, the concentration for total growth inhibition (TGI) in the experiment on A498 renal was 5.34 µM; in the experiment with COLO 205 colon, 2.96 µM; in the experiment with HCT-15 colon, greater than 100 µM; with HOP-62 NSCLC, 45.9 µM; in the experiment with IGROV1 ovarian, greater than 100 µM; in the experiment on NCI-H226 lung, 3.95 µM. In addition, the total growth inhibition concentration (TGI) is 2.09 µM in the experiment with NCI-H522 lung, greater than 100 µM in the experiment with SNB-19 CNS, greater than 100 µM in the experiment with SW-620 colon and greater than 100 µM in the experiment with T-47D breast.

Take `CCOC(=O)[C@H](CSSc1ncnc2cc[nH]c12)NC(=O)[C@@H](C)c1ccc2cc(OC)ccc2c1`: the GI50 with A498 renal is 6.96 µM; in the experiment on COLO 205 colon, 1.85 µM; in the experiment with HCT-15 colon, 1.73 µM; in the experiment with HOP-62 NSCLC, 0.408 µM; in the experiment with IGROV1 ovarian it was 5.08 µM; in the experiment on NCI-H226 lung it was 0.614 µM. Also, the GI50 in the experiment with NCI-H522 lung was 0.303 µM; in the experiment with SNB-19 CNS it was 44.4 µM; in the experiment with SW-620 colon, 1.64 µM; in the experiment on T-47D breast, 0.0375 µM. Also, the concentration for total growth inhibition (TGI) in the experiment on A498 renal was greater than 50.9 µM; in the experiment with COLO 205 colon it was greater than 100 µM; in the experiment with HCT-15 colon, greater than 100 µM; in the experiment with HOP-62 NSCLC it was greater than 100 µM; with IGROV1 ovarian, greater than 100 µM; with NCI-H226 lung, greater than 100 µM. Besides, the concentration for total growth inhibition (TGI) in the experiment on NCI-H522 lung was greater than 31.5 µM; in the experiment with SNB-19 CNS, greater than 100 µM; in the experiment with SW-620 colon, greater than 100 µM; in the experiment with T-47D breast it was greater than 100 µM.

Regarding `COc1ccc(-c2cc(-c3ccc(Nc4nc(Nc5ccc(Cl)cc5)nc(Nc5ccc(Cl)cc5)n4)cc3)no2)cc1`, the GI50 was 14 µM with A498 renal; 11.6 µM with COLO 205 colon; 12.4 µM in the experiment with HCT-15 colon; 20.5 µM in the experiment with HOP-62 NSCLC; 6.3 µM in the experiment with IGROV1 ovarian; 19.8 µM in the experiment on NCI-H226 lung. For the same compound, the GI50 in the experiment with NCI-H522 lung was 7.67 µM; in the experiment with SNB-19 CNS it was 27.4 µM; in the experiment with SW-620 colon, 11.3 µM; in the experiment on T-47D breast, 6.26 µM. Also, the TGI is 61.1 µM in the experiment on A498 renal; 29.7 µM with COLO 205 colon; greater than 100 µM in the experiment with HCT-15 colon; 60.5 µM in the experiment with HOP-62 NSCLC; 42.8 µM with IGROV1 ovarian; 49.2 µM with NCI-H226 lung. Besides, the TGI with NCI-H522 lung is 25.5 µM; in the experiment with SNB-19 CNS, greater than 100 µM; with SW-620 colon, 25.6 µM; in the experiment on T-47D breast, greater than 100 µM.

Take `O=c1oc2ccc(Cl)cc2c(=O)n1-c1ccc(Cl)cc1F`: the 50% growth inhibitory concentration (GI50) with A498 renal is 0.161 µM; in the experiment on COLO 205 colon, 6.74 µM; in the experiment with HCT-15 colon, 0.791 µM; in the experiment with HOP-62 NSCLC it was 0.622 µM; with IGROV1 ovarian, 0.237 µM; in the experiment with NCI-H226 lung, 0.576 µM. Moreover, the GI50 with NCI-H522 lung is 0.331 µM; with SNB-19 CNS, 0.391 µM; with SW-620 colon, 0.652 µM; in the experiment on T-47D breast it was 0.36 µM. For the same compound, the concentration for total growth inhibition (TGI) was 0.498 µM in the experiment with A498 renal; 22.4 µM in the experiment on COLO 205 colon; 6.69 µM with HCT-15 colon; 2.86 µM in the experiment with HOP-62 NSCLC; 20.6 µM in the experiment with IGROV1 ovarian; 3.3 µM in the experiment with NCI-H226 lung. In addition, the total growth inhibition concentration (TGI) is 3.22 µM in the experiment with NCI-H522 lung, greater than 100 µM in the experiment with SNB-19 CNS, 9.02 µM in the experiment with SW-620 colon and 2.2 µM in the experiment with T-47D breast.
